Data taken from patent publication US12391664B2, “GluN2C/D subunit selective antagonists of the N-methyl-D-aspartate receptor” (Emory University, priority 2018, dated 2025).
Where two headings read alike, the source gives them in different places.

Tests used:
Type in all cases: cell-based
[1] = biological target: T1, recombinant rat GluN1/GluN2A (Rattus norvegicus, UniProt Q00959); test: Two-electrode voltage-clamp recordings in Xenopus laevis oocytes, GluN2A; conditions: oocytes, 100 μM glutamate and 30 μM glycine
T1 construct: expressed in transfected cells; host or cells: Xenopus laevis oocytes injected with cRNA (GluN1:GluN2 ratio 1:2)
T1 sequence (Q00959 23-1464, other chains not shown): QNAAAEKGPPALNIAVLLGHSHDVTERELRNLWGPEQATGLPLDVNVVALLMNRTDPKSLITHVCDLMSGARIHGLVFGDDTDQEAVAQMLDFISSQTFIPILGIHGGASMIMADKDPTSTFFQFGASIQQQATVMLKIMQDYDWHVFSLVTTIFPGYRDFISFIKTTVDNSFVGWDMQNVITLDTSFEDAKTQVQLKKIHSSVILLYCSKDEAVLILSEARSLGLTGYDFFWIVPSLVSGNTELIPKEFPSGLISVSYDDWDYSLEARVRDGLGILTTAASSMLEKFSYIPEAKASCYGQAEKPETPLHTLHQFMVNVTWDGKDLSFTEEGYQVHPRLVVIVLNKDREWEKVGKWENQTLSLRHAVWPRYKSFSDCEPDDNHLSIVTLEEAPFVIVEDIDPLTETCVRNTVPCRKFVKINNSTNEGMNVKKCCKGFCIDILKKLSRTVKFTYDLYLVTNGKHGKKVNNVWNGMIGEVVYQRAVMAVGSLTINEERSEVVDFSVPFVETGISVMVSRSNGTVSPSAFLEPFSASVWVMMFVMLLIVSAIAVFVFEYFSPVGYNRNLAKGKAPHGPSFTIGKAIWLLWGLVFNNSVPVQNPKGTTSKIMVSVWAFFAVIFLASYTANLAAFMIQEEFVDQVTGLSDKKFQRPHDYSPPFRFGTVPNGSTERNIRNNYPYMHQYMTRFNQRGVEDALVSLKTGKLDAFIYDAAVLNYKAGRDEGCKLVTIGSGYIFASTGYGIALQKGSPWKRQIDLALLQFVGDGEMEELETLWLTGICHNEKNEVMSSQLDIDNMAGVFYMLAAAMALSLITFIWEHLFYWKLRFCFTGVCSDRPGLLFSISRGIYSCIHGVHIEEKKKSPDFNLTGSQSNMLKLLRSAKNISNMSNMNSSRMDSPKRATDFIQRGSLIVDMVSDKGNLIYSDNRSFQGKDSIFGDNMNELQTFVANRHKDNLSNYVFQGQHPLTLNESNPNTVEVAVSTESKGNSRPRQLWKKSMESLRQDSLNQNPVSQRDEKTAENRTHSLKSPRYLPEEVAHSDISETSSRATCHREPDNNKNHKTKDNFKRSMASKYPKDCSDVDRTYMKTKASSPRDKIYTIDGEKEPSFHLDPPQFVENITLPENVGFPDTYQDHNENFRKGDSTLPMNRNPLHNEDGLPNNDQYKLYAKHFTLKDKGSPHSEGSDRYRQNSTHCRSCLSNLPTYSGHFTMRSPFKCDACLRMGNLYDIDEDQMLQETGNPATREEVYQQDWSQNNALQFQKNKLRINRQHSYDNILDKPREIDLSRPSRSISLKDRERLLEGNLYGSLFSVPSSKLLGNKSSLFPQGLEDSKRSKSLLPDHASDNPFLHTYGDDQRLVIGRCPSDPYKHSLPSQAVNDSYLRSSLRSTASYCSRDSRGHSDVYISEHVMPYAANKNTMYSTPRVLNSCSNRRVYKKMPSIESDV
Experimental: (§1) All target compounds were evaluated for activity by the Traynelis laboratory at Emory University using two-electrode voltage-clamp recordings performed in Xenopus laevis oocytes expressing recombinant GluN2A-D subunits (Table 1). […] Two ester compounds 997-65 and 997-66 also performed no inhibition at GluN2A to GluN2D receptors. […] Consequently, for the compounds that Acker et al. already published, it was necessary to increase the concentration to 100 μM when collecting data for a concentration effect curve. […] Therefore, under this condition, we can only conclude that compound 997-67 remained potent at GluN2C/D-containing receptors, but its selectivity over GluN2A- and GluN2B-containing receptors could not be compared to 997-57. […] Finally, replacing the carboxylic acid to the bio-isostere amide yielded compounds 997-96 and 997-115, which dropped the potency 2- to 4-fold in comparison to their corresponding acids 997-74 and 997-114.
(§2) Two-electrode voltage-clamp recordings were performed in Xenopus laevis oocytes that were injected with mRNA to express recombinant rat GluN1/GluN2A, GluN1/GluN2B, GluN1/GluN2C, and GluN1/GluN2D. The recordings using unfertilized oocytes from Xenopus laevis were permitted by Emory University Institutional Animal Care and Use Committee (IACUC). An automatic injector (Nanoject II, Drummond Scientific) was used for cRNA injection using the pipettes filled with mineral oil. The cRNA that transcribed in vitro via the mMessage Machine kit (Ambion) was diluted with nuclease-free water, and then injected at GluN1/GluN2 with a ratio of 1:2. The oocytes were stored in Barth's solution that contained 88 mM NaCl, 5.0 mM Tris-HCl, 2.4 mM NaHCO3, 1.0 mM KCl, 0.84 mM MgSO4, 0.41 mM CaCl2, 0.33 mM Ca(NO3)2, 0.1 mg/ml gentamycin sulfate, 1.0 U/ml penicillin, and 1 μg/ml streptomycin at a pH of 7.4 and temperatures of 15-17° C. for two to five days before the two-electrode voltage-clamp recordings. When recording, the oocytes were placed in a perfusion chamber and continually washed with the recording solution comprised of 90 mM NaCl, 1.0 mM KCl, 0.50 mM BaCl2, 0.005 mM EDTA, and 10 mM HEPES at a pH of 7.4 and a temperature of 23° C. Glass electrodes with a tip resistance of 0.5 to 2.5 MΩ were obtained from thin-walled glass capillary tubes. Voltage electrodes and current electrodes were filled with 0.3 M and 3.0 M KCl, respectively. The recordings were executed with the oocytes membrane potential holding at −40 m V by an OC-725 amplifier (Warner Instrument Co). All compounds were dissolved in dimethyl sulfoxide (DMSO) as 20 mM stock solutions and future diluted to reach the desired concentration (0.05-0.5% (vol/vol) DMSO) in recording solution comprised of 30 μM glycine and 100 μM glutamate. Each compound was recorded 3-7 times in the least 4 oocytes from at least 2 different Xenopus laevis.
(§3) To evaluate the inhibition of compounds, the concentration-response curve was fitted with the average two-electrode voltage-clamp recording results with the equation
(§4) [formula] • where IC50 is the concentration of compounds that inhibit half maximal of the current response and N is the Hill slope.

[2] = biological target: T2, recombinant rat GluN1/GluN2B (Rattus norvegicus, UniProt Q00960); test: Two-electrode voltage-clamp recordings in Xenopus laevis oocytes, GluN2B; conditions: oocytes, 100 μM glutamate and 30 μM glycine
T2 construct: expressed in transfected cells; host or cells: Xenopus laevis oocytes injected with cRNA (GluN1:GluN2 ratio 1:2)
Experimental: as §1, §2, §3, §4

[3] = biological target: T3, recombinant rat GluN1/GluN2D (Rattus norvegicus, UniProt P35439+Q62645); test: Two-electrode voltage-clamp recordings in Xenopus laevis oocytes, GluN2D
T3 construct: expressed in transfected cells; host or cells: Xenopus laevis oocytes injected with cRNA (GluN1:GluN2 ratio 1:2)
T3 sequence (Q62645 28-1323, other chains not shown): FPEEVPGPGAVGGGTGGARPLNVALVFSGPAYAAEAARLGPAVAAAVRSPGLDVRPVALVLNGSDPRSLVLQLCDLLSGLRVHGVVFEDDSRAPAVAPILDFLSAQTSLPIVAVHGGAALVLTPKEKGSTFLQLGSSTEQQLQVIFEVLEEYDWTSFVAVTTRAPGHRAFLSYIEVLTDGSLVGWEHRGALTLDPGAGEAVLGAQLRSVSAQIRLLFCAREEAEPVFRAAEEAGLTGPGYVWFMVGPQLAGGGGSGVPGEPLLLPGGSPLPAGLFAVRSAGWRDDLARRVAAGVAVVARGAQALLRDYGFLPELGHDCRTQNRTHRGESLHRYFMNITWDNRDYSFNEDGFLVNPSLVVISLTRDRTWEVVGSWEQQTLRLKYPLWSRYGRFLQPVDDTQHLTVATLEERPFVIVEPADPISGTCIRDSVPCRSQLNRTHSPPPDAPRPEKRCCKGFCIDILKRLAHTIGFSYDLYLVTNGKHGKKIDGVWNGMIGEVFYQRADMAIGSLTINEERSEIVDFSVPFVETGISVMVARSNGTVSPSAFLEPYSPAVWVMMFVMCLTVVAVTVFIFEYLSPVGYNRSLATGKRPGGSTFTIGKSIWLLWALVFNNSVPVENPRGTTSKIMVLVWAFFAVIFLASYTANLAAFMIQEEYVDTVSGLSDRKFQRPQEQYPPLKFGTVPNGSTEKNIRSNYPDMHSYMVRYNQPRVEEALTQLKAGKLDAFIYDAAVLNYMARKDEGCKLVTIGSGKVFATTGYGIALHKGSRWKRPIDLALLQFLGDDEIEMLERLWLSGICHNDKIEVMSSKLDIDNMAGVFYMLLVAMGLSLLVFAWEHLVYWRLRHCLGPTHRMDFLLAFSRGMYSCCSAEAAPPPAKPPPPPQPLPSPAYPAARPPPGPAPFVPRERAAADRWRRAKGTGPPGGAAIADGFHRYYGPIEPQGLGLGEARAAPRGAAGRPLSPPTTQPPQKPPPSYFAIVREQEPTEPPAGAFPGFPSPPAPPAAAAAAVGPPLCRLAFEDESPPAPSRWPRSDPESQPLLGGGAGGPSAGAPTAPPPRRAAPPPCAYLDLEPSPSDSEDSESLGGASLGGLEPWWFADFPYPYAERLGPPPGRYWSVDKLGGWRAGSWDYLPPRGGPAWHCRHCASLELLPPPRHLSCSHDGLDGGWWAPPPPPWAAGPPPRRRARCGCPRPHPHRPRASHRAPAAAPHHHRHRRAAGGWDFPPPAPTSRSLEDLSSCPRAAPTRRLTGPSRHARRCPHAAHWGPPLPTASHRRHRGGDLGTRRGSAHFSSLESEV
Experimental: as §1, §2, §3, §4

[4] = biological target: T4, recombinant rat GluN1/GluN2C (Rattus norvegicus, UniProt P35439+Q00961); test: Two-electrode voltage-clamp recordings in Xenopus laevis oocytes, GluN2C; conditions: oocytes, 100 μM glutamate and 30 μM glycine; read-out: GluN2C IC50
T4 construct: expressed in transfected cells; host or cells: Xenopus laevis oocytes injected with cRNA (GluN1:GluN2 ratio 1:2)
T4 sequence (Q00961 20-1237, other chains not shown): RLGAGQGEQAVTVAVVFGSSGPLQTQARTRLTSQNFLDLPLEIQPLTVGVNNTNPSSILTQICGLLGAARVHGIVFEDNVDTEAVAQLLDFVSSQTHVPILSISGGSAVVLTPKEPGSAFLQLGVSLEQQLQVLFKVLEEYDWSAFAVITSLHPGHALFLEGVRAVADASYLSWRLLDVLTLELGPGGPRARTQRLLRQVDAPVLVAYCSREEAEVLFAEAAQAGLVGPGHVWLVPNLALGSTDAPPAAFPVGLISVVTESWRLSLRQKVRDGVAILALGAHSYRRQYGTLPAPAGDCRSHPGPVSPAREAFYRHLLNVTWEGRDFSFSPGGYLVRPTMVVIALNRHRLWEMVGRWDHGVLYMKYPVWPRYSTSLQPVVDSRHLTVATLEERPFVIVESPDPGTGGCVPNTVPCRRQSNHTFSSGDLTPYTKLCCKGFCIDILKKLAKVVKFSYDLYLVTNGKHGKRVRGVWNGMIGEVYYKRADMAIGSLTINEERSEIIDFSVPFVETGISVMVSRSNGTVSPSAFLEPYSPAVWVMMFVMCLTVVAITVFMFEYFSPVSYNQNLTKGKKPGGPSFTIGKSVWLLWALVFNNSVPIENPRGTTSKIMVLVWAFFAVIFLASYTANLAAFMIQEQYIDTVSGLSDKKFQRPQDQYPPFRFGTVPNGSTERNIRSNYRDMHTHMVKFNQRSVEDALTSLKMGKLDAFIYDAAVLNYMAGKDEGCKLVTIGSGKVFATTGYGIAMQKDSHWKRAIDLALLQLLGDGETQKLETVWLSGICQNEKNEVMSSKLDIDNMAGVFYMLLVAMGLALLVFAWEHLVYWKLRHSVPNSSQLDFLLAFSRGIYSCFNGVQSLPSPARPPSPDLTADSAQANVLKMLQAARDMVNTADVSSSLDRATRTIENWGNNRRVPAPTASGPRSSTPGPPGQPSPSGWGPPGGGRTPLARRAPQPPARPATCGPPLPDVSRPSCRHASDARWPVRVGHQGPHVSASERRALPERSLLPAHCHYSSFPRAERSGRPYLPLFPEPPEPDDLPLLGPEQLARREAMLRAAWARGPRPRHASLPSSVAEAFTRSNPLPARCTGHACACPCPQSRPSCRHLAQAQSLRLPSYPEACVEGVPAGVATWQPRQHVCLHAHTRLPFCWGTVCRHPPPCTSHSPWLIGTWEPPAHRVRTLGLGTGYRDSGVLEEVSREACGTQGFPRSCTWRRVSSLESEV
Experimental: as §1, §2, §3, §4

[5] = biological target: T5, recombinant rat GluN1/GluN2B (Rattus norvegicus, UniProt P35439+Q00960); test: Two-electrode voltage-clamp recordings in Xenopus laevis oocytes, GluN2B; conditions: oocytes, 100 μM glutamate and 30 μM glycine
T5 construct: expressed in transfected cells; host or cells: Xenopus laevis oocytes injected with cRNA (GluN1:GluN2 ratio 1:2)
Experimental: as §1, §2, §3, §4

[6] = biological target: T6, recombinant rat GluN1/GluN2D (Rattus norvegicus, UniProt Q62645); test: Two-electrode voltage-clamp recordings in Xenopus laevis oocytes, GluN2D; conditions: for 2B IC50 / 2D IC50 / 2A IC50 / 2D IC50: ratio of IC50 values
T6 construct: expressed in transfected cells; host or cells: Xenopus laevis oocytes injected with cRNA (GluN1:GluN2 ratio 1:2)
T6 sequence (Q62645 28-1323, other chains not shown): as the sequence (Q62645 28-1323, other chains not shown) above
Experimental: as §1, §2, §3, §4

[7] = GluN2C and GluN2D receptors, read-out: IC50 values at GluN2C and GluN2D receptors, range over the alcohol compounds
[8] = oocytes, 100 μM glutamate and 30 μM glycine, read-out: GluN2D IC50
[9] = read-out: IC50 at GluN2D-containing receptors

Row | IC50 [4] [µM] | IC50 [3, 8] [µM] | Compound | GluN2A IC50 [1] | GluN2B IC50 [2] | also measured
1 | 1.44 | 0.343 | NC(=O)C(F)(F)CC(=O)N1N=C(c2c(-c3ccc(Cl)cc3)c3ccccc3[nH]c2=O)CC1c1ccc(Cl)cc1 (centres unmarked) [997-115, 4-(5-(4-chlorophenyl)-3-(4-(4-chlorophenyl)-2-oxo-1,2-dihydroquinolin-3-yl)-4,5-dihydro-1H-pyrazol-1-yl)-2,2-difluoro-4-oxobutanamide] | NE (NE indicates less than 50% inhibition at 30 μM.) | NE (NE indicates less than 50% inhibition at 30 μM.) | 
2 | 0.43 |  | O=C(O)CC(F)(F)C(=O)N1N=C(c2c(-c3ccc(Cl)cc3)c3ccccc3[nH]c2=O)CC1c1ccc(Cl)s1 (centres unmarked) [997-110, 4-(3-(4-(4-chlorophenyl)-2-oxo-1,2-dihydroquinolin-3-yl)-5-(5-chlorothiophen-2-yl)-4,5-dihydro-1H-pyrazol-1-yl)-3,3-difluoro-4-oxobutanoic acid] |  |  | IC50 [5]: 100 µM; IC50 [3, 9]: 0.16 µM; selectivity at GluN2D- over GluN2B-containing receptor [6]: 625 fold; fold decrease of potency at GluN2D in comparison to 997-74 ([6]; comparator 997-74): 3 fold; 2B IC50 / 2D IC50 [6]: 625
3 | 7 | 3.1 | O=C(O)CC(F)(F)C(=O)N1N=C(c2c(-c3ccc(F)cc3)c3ccccc3[nH]c2=O)CC1c1ccc(F)cc1 (centres unmarked) [997-103, 3,3-difluoro-4-(5-(4-fluorophenyl)-3-(4-(4-fluorophenyl)-2-oxo-1,2-dihydroquinolin-3-yl)-4,5-dihydro-1H-pyrazol-1-yl)-4-oxobutanoic acid] | NE (NE indicates less than 50% inhibition at 30 μM.) | NE (NE indicates less than 50% inhibition at 30 μM.) | 
4 | 0.44 |  | O=C(O)CC(F)(F)C(=O)N1N=C(c2c(-c3ccc(Cl)cc3)c3ccccc3[nH]c2=S)CC1c1ccc(Cl)cc1 (centres unmarked) [997-98, 4-(5-(4-chlorophenyl)-3-(4-(4-chlorophenyl)-2-thioxo-1,2-dihydroquinolin-3-yl)-4,5-dihydro-1H-pyrazol-1-yl)-3,3-difluoro-4-oxobutanoic acid] | inactive | inactive | GluN2A IC50 ([1]; listed as 98): NE (NE indicates less than 50% inhibition at 30 μM.); GluN2B IC50 ([2]; listed as 98): NE (NE indicates less than 50% inhibition at 30 μM.); IC50 [3, 9]: 0.14 µM
5 | 6.7 | 5.1 | O=C(O)CCC(=O)N1N=C(c2c(-c3ccc(F)cc3)c3ccccc3[nH]c2=O)CC1c1ccc(F)cc1 (centres unmarked) [997-105, 4-(5-(4-fluorophenyl)-3-(4-(4-fluorophenyl)-2-oxo-1,2-dihydroquinolin-3-yl)-4,5-dihydro-1H-pyrazol-1-yl)-4-oxobutanoic acid] | NE (NE indicates less than 50% inhibition at 30 μM.) | NE (NE indicates less than 50% inhibition at 30 μM.) | 
6 | 13.5 | 12.3 | O=C(O)CC(F)(F)C(=O)N1N=C(c2ccccc2-c2ccc(F)cc2F)CC1c1ccc(Cl)cc1 (centres unmarked) [997-121, 4-(5-(4-chlorophenyl)-3-(2′,4′-difluoro-[1,1′-biphenyl]-2-yl)-4,5-dihydro-1H-pyrazol-1-yl)-3,3-difluoro-4-oxobutanoic acid] | NE (NE indicates less than 50% inhibition at 30 μM.) | NE (NE indicates less than 50% inhibition at 30 μM.) | fold decrease of activity in comparison to 997-95 ([6]; comparator 997-95): 2 fold
7 | 16 | 12 | O=C(O)CCC(=O)N1N=C(c2ccccc2-c2ccc(Cl)cc2)CC1c1ccc(Cl)cc1 (centres unmarked) [997-99, 4-(3-(4′-chloro-[1,1′-biphenyl]-2-yl)-5-(4-chlorophenyl)-4,5-dihydro-1H-pyrazol-1-yl)-4-oxobutanoic acid] | NE (NE indicates less than 50% inhibition at 30 μM.) | NE (NE indicates less than 50% inhibition at 30 μM.) | 

The next lines start with the compound.

Row | Compound | IC50 [4] [µM] | IC50 [3, 8] [µM] | GluN2A IC50 [1] | GluN2B IC50 [2] | also measured
8 | O=C(CC(F)(F)CO)N1N=C(c2c(-c3ccc(Cl)cc3)c3ccccc3[nH]c2=O)CC1c1ccc(Cl)cc1 (centres unmarked) [997-67, 4-(4-chlorophenyl)-3-[5-(4-chlorophenyl)-1-(3,3-difluoro-4-hydroxybutanoyl)-4,5-dihydro-1H-pyrazol-3-yl]quinolin-2(1H)-one] |  |  | NE (NE indicates less than 50% inhibition at 30 μM.) | NE (NE indicates less than 50% inhibition at 30 μM.) | IC50 [3, 7]: 0.8 to 2 µM
9 | O=C(O)CC(F)(F)C(=O)N1N=C(c2ccccc2-c2ccc(Cl)cc2)CC1c1ccc(Cl)cc1 (centres unmarked) [997-95, 4-(3-(4′-chloro-[1,1′-biphenyl]-2-yl)-5-(4-chlorophenyl)-4,5-dihydro-1H-pyrazol-1-yl)-3,3-difluoro-4-oxobutanoic acid] | 4.8 | 6.2 |  |  | IC50 [5]: 6.4 µM; 2A IC50 / 2D IC50 [6]: 5; 2B IC50 / 2D IC50 [6]: 1
10 | O=C(O)CCC(=O)N1N=C(c2c(-c3ccncc3)c3ccccc3[nH]c2=O)CC1c1ccc(Cl)cc1 (centres unmarked) [997-82, 4-(5-(4-chlorophenyl)-3-(2-oxo-4-(pyridin-4-yl)-1,2-dihydroquinolin-3-yl)-4,5-dihydro-1H-pyrazol-1-yl)-4-oxobutanoic acid] |  |  | NE (NE indicates less than 50% inhibition at 30 μM.) | NE (NE indicates less than 50% inhibition at 30 μM.) | 
11 | O=C(CC(F)(F)CO)N1N=C(c2c(-c3cccc(F)c3)c3ccccc3[nH]c2=O)CC1c1ccc(Cl)cc1 (centres unmarked) [997-68, 3-[5-(4-chlorophenyl)-1-(3,3-difluoro-4-hydroxybutanoyl)-4,5-dihydro-1H-pyrazol-3-yl]-4-(3-fluorophenyl)quinolin-2(1H)-one] | 4.3 | 1.4 | NE (NE indicates less than 50% inhibition at 30 μM.) | NE (NE indicates less than 50% inhibition at 30 μM.) | IC50 [3, 7]: 0.8 to 2 µM
12 | NC(=O)CC(F)(F)C(=O)N1N=C(c2c(-c3ccc(Cl)cc3)c3ccccc3[nH]c2=O)CC1c1ccc(Cl)cc1 (centres unmarked) [997-96, 4-(5-(4-chlorophenyl)-3-(4-(4-chlorophenyl)-2-oxo-1,2-dihydroquinolin-3-yl)-4,5-dihydro-1H-pyrazol-1-yl)-3,3-difluoro-4-oxobutanamide] | 0.5 | 0.2 |  |  | IC50 [5]: 2.8 µM; 2A IC50 / 2D IC50 [6]: 150; 2B IC50 / 2D IC50 [6]: 14
13 | Cc1ccc2[nH]c(=O)c(C3=NN(C(=O)CC(F)(F)CO)C(c4ccc(Cl)cc4)C3)c(-c3ccc(Cl)cc3)c2c1 (centres unmarked) [997-91, 4-(4-chlorophenyl)-3-[5-(4-chlorophenyl)-1-(3,3-difluoro-4-hydroxybutanoyl)-4,5-dihydro-1H-pyrazol-3-yl]-6-methylquinolin-2(1H)-one] | 7.1 | 4.4 | NE (NE indicates less than 50% inhibition at 30 μM.) | NE (NE indicates less than 50% inhibition at 30 μM.) | 
14 | O=C(N1N=C(c2c(-c3ccc(Cl)cc3)c3ccccc3[nH]c2=O)CC1c1ccc(Cl)cc1)C(F)(F)CCO (centres unmarked) [997-75, 4-(4-chlorophenyl)-3-[5-(4-chlorophenyl)-1-(2,2-difluoro-4-hydroxybutanoyl)-4,5-dihydro-1H-pyrazol-3-yl]quinolin-2(1H)-one] | 17 | 2 | NE (NE indicates less than 50% inhibition at 30 μM.) | NE (NE indicates less than 50% inhibition at 30 μM.) | IC50 [3, 7]: 0.8 to 2 µM
